Experimental data taken from the NIST ThermoML archive (doi:10.1016/j.jct.2019.01.021).

Experiment: molar heat capacity at constant pressure
Details: 101.33 kPa, Crystal 2, Small (less than 1 g) adiabatic calorimetry

N.NS(=O)(=O)O [ammonium sulfamate]
Details	molar heat capacity at constant pressure [J/K/mol]
5 K	0.003159
8.91 K	0.2228
9.15 K	0.2561
9.62 K	0.3293
9.86 K	0.3608
10 K	0.3908
10.36 K	0.4664
10.69 K	0.5138
11.01 K	0.5995
11.34 K	0.6668
11.67 K	0.7466
12.01 K	0.8356
12.34 K	0.9262
12.68 K	1.013
13.01 K	1.113
13.35 K	1.229
13.69 K	1.347
14.03 K	1.465
14.37 K	1.586
14.72 K	1.72
15 K	1.837
15.07 K	1.857
15.42 K	2
15.76 K	2.155
16.11 K	2.332
16.47 K	2.484
16.82 K	2.64
17.17 K	2.83
17.52 K	3.021
17.88 K	3.204
18.24 K	3.395
18.59 K	3.592
18.95 K	3.806
19.31 K	4.033
19.67 K	4.25
20 K	4.407
20.03 K	4.465
20.61 K	4.831
21.36 K	5.306
22.1 K	5.824
22.85 K	6.364
23.61 K	6.908
24.36 K	7.492
25 K	7.982
25.12 K	8.117
25.88 K	8.748
26.65 K	9.316
27.42 K	9.947
28.19 K	10.61
28.96 K	11.3
29.73 K	11.97
30 K	12.22
30.51 K	12.68
31.29 K	13.41
32.06 K	14.11
32.85 K	14.85
33.63 K	15.59
34.41 K	16.31
35 K	16.88
35.2 K	17.03
35.98 K	17.81
36.77 K	18.53
37.56 K	19.25
38.35 K	19.96
39.14 K	20.7
39.93 K	21.44
40 K	21.53
40.72 K	22.21
41.51 K	22.95
42.31 K	23.72
43.1 K	24.46
43.9 K	25.22
44.69 K	26
45 K	26.19
45.49 K	26.74
46.29 K	27.42
47.09 K	28.16
47.88 K	28.92
48.68 K	29.58
49.48 K	30.31
50 K	30.85
50.28 K	31.01
51.08 K	31.75
51.88 K	32.46
52.68 K	33.24
53.48 K	34.09
54.28 K	34.9
55 K	35.75
55.08 K	35.75
55.89 K	36.24
56.69 K	36.94
57.49 K	37.64
58.29 K	38.37
59.1 K	39.05
59.91 K	39.76
60 K	39.91
60.71 K	40.47
61.52 K	41.17
62.32 K	42.03
63.12 K	42.86
63.92 K	43.55
64.73 K	44.16
65 K	44.07
65.54 K	44.89
66.34 K	45.53
67.15 K	46.21
67.95 K	46.89
68.76 K	47.59
69.57 K	48.3
70 K	49.06
70.38 K	49.01
71.3 K	49.73
72.35 K	50.64
73.39 K	51.54
74.44 K	52.48
75 K	53.21
75.48 K	53.43
76.53 K	54.35
77.58 K	55.24
78.62 K	56.18
79.67 K	57.12
79.91 K	57.2
80 K	57.37
80.72 K	58.02
80.96 K	58.19
81.77 K	58.95
82.01 K	59.07
82.82 K	59.87
83.05 K	59.96
83.87 K	60.82
84.1 K	60.91
84.92 K	61.73
85.15 K	61.78
86.2 K	62.6
87.24 K	63.53
88.29 K	64.43
89.34 K	65.22
90 K	65.68
90.39 K	66.05
91.44 K	66.98
92.49 K	67.83
93.54 K	68.65
94.59 K	69.45
95.65 K	70.24
96.7 K	71.12
97.75 K	71.89
98.8 K	72.7
99.86 K	73.47
100 K	73.33
100.91 K	74.3
101.96 K	75.09
103.01 K	75.85
104.06 K	76.59
105.11 K	77.34
106.16 K	78.13
107.21 K	78.85
108.26 K	79.53
109.31 K	80.3
110 K	80.4
110.37 K	80.98
111.42 K	81.71
112.47 K	82.4
113.53 K	83.05
114.58 K	83.71
115.63 K	84.43
116.68 K	85.1
117.74 K	85.75
118.79 K	86.44
119.84 K	87.02
120 K	86.89
120.9 K	87.68
121.95 K	88.37
123 K	88.95
124.05 K	89.55
125.11 K	90.12
126.16 K	90.78
127.21 K	91.36
128.27 K	92.02
129.32 K	92.56
130 K	92.71
130.38 K	93.15
131.43 K	93.76
132.49 K	94.31
133.54 K	94.78
134.59 K	95.43
135.65 K	95.99
136.7 K	96.5
137.76 K	97.01
138.81 K	97.53
139.87 K	98.13
140 K	98.03
140.92 K	98.63
141.97 K	99.21
143.03 K	99.69
144.09 K	100.16
145.14 K	100.67
146.2 K	101.12
147.25 K	101.64
148.31 K	102.18
149.36 K	102.59
150 K	102.85
150.42 K	103.11
151.47 K	103.62
152.53 K	104.13
153.58 K	104.47
154.64 K	105.04
155.69 K	105.57
156.75 K	105.98
157.8 K	106.39
158.86 K	106.87
159.91 K	107.31
160 K	107.34
160.97 K	107.74
162.02 K	108.15
163.08 K	108.69
164.13 K	109.09
165.19 K	109.46
166.24 K	109.98
167.3 K	110.42
168.35 K	110.83
169.41 K	111.19
170 K	111.5
170.46 K	111.64
171.51 K	112.13
172.57 K	112.44
173.62 K	112.78
174.67 K	113.21
175.73 K	113.67
176.78 K	114.15
177.84 K	114.52
178.89 K	114.89
179.94 K	115.32
180 K	115.4
181 K	115.71
182.05 K	116.14
183.1 K	116.41
184.16 K	116.84
185.21 K	117.3
186.26 K	117.56
